Assay: Human HepG2 cell viability assay in 384 well format
Format: toxicity, cell-based
Design: dose 125 nL, time 70.5 hour; concentration not given beside the values
Details: HepG2 cells, read-out: Inhibition

| SMILES | cytotoxicity at 70.5 h |
| --- | --- |
| CCc1cc(C(=O)N2CCc3c(ncn3CCc3ccccc3)C2)[nH]n1 | 5.19% |
| CCc1c(C)nc2ccccc2c1N1CCC(O)CC1 | -3.88% |
| CN1CCN(C(=O)CCc2cc(Br)cs2)CC1 | -6.76% |
| CN(Cc1ccc(F)cc1F)CC(C)(CO)CO | -5.77% |
| Cc1cnc(NC2CCN(CC(=O)Nc3ccccc3)CC2)nc1C | 2.9% |
| CN(C)c1nccc(N(C)C2CCCCC2)n1 | -4.22% |
| Cc1noc(CNc2ccccc2N2CCCCC2)n1 | -2.98% |
| Cc1cc(NC(=O)C(C)N2CCN(c3ccccc3F)CC2)no1 (configuration not stated) | 4.65% |
| CCc1ccc(Cn2nccc2NC(=O)C2CCS(=O)(=O)C2)cc1 (configuration not stated) | -3.51% |
| CCCC(=O)NS(=O)(=O)c1ccc(C#N)c(C(F)(F)F)c1 | 1.39% |
| CC(C)(C)C(=O)NS(=O)(=O)c1ccc(C#N)c(C(F)(F)F)c1 | 7.04% |
| CC(C(=O)NC(N)=O)N1CCN(c2ccc(C#N)cc2F)CC1 (configuration not stated) | -19.1% |
| Cc1nc2ccccc2n1CCNCc1cccc(O)c1 | -4.75% |
| COCCCNC(=O)CN(C)C(=O)CN(C)c1ccc(C#N)cn1 | -7.44% |
| CC1(C)Cc2ccc(C(=O)NC3CCS(=O)(=O)C3)c(O)c2O1 (configuration not stated) | 12.1% |
| CC/C=C(/C)C(=O)NS(=O)(=O)c1ccc(C#N)cc1C(F)(F)F | -7.29% |
| CC/C=C(/C)C(=O)NS(=O)(=O)c1ccc(C#N)c(C(F)(F)F)c1 | -12.5% |
| COc1ccccc1C(C)(C)NC(=O)NC1CCC(O)CC1 (configuration not stated) | -15.4% |
| O=C(Nc1cccnc1)NC(CCCO)c1ccccc1 (configuration not stated) | -16% |
| CCNC(=O)N1CCc2ccc(NC(=O)C(C)c3ccsc3)cc21 (configuration not stated) | -11.3% |
| O=C1CCCc2[nH]c(=O)c(C(=O)N3CCc4ccccc4C3)cc21 | 0.27% |
| Cn1nccc1NC(=O)CN1CCc2sccc2C1 | -11.2% |
| CN(C)Cc1ccc(CNC(=O)NCC2(C)CCCS2)cc1 (configuration not stated) | 7.26% |
| O=C1CCC(C(=O)Nc2cnn(-c3ccccc3Br)c2)N1 (configuration not stated) | -15.6% |

| SMILES | cytotoxicity at 70.5 h |
| --- | --- |
| Cc1ccc(F)c(N2CCCC(Nc3nccn4cnnc34)C2=O)c1 (configuration not stated) | -11.1% |
| O=C1C(Nc2nccn3cnnc23)CCN1c1cccc(Cl)c1 (configuration not stated) | -11.2% |
| CC(C)n1nccc1NC(=O)CN1CCc2sccc2C1 | -15.3% |
| CC(C)CN1CCC(NC(C)c2ccccc2-n2cccn2)CC1 (configuration not stated) | -3.22% |
| CN(Cc1cccc(OC(F)(F)F)c1)C(=O)c1cnsn1 | -3.78% |
| CC(C)C(NC(=O)c1ccccc1F)C(=O)Nc1cnn(C)c1 (configuration not stated) | -13.2% |
| CCn1cnnc1CCNC(=O)C(C)(C)c1cccc(Cl)c1 | -7.37% |
| CC(Nc1ccc(CN2CCCC2=O)cc1)C(=O)N(C)CCC#N (configuration not stated) | 0.0537% |
| CC(Nc1ccc(CCN2CCOCC2)cc1)C(=O)N(C)CCC#N (configuration not stated) | 9.3% |
| Cc1c(NCCOCC(F)(F)F)cccc1C(=O)N1CCCC1 | -10.8% |
| Cc1cc(C(=O)N2CCCC2)ccc1NCCO | -10.2% |
| Cc1ccc(NCc2ccco2)cc1N1CCOC1=O | -16% |
| COc1ccc(-c2nc(C3(NC(=O)OC(C)(C)C)CCC3)no2)cn1 | -3.79% |
| CCOCc1ccc(NC(=O)NC2CCCn3nc(CC)nc32)cc1 (configuration not stated) | -7.72% |
| CC(C)(C)OC(=O)NC1(c2noc(-c3ccco3)n2)CCC1 | -9.18% |
| Fc1ccc(CNc2ccccc2Cn2cncn2)cc1 | -7.99% |
| O=S(=O)(CC1CCOCC1)NCc1ccnc(O)c1 | 10.4% |
| C=C(C)Cn1ccc2cc(OC)c(F)cc2c1=O | -2.43% |
| COc1cc2ccn(CCCO)c(=O)c2cc1F | -6.17% |
| O=C(NC1CC(F)(F)C1)[C@]12COC[C@H]1CN(Cc1ccsc1)C2 | -2.91% |
| COc1cc(N2CCC3(CC2)CCN(c2cccnc2)C3=O)ncn1 | -9.9% |
| Cn1cccc1C(=O)NCc1cnc2n1CCN(CC1CCOCC1)C2 | -3.17% |
| Cn1cc(-c2ncc3c(c2C(=O)O)CCN(CC2CC2)C3)cn1 | -1.4% |
